Here are results for 24 compounds from ChEMBL document CHEMBL1157462, “Sodium late current blockers in ischemia reperfusion: is the bullet magic?” (J Med Chem, 2008).

SMILES strings stand for the structures. Active and inactive are the calls of the source. No cut-off for these calls is given here.

Series [1] relates to Heart. Put plainly: Inhibition of global ischemia-induced diastolic contracture in isolated Langendorff perfused guinea pig model heart at 1 uM after 15 mins. In kind it is functional, Cavia porcellus.
Series [2] has as its target T1, Sodium channel protein type 5 subunit alpha (Homo sapiens, UniProt Q14524). Put plainly: Inhibition of human sodium Nav1.5 channel expressed in HEK293 cells assessed as inhibition of veratridine-induced late sodium current elicited at -30 mV from holding potential of -90 mV at 10 uM by patch clamp technique. In kind it is cell-based. Conditions: for inhibition at 10 µM: HEK293, human.

Series [3] concerns Cardiac atrium. Nature of the series: tissue or blood. Conditions: Rattus norvegicus, Wistar, 0.25 h, read-out: INH.
Description: (§1) Inhibition of veratridine-induced diastolic contracture in Wistar rat atrium assessed as inhibition of systolic isometric tension of at 1 uM 15 mins
The target of series [4] is T1, Sodium channel protein type 5 subunit alpha. Nature of the series: Inhibition of human sodium Nav1.5 channel expressed in HEK293 cells assessed as inhibition of veratridine-induced late sodium current elicited at -30 mV from holding potential of -110 mV at 10 uM by patch clamp technique. Conditions: for inhibition at 10 µM: HEK293, human. In kind it is cell-based. Background: Patch clamp records ionic current or voltage across a cell membrane.

For series [5], the system named is Cardiac atrium. Conditions: Rattus norvegicus, Wistar, 1 uM.
Description: as §1
Series [6] relates to Oryctolagus cuniculus. Nature of the series: Effect on heart rate in anesthetized New Zealand white rabbit myocardial ischemia model assessed as beats per minute at 2.5 mg/kg. In kind it is functional.
For series [7], the system named is Oryctolagus cuniculus. Nature of the series: Effect on heart rate in anesthetized New Zealand white rabbit myocardial ischemia model assessed as beats per minute at 0.16 mg/kg. In kind it is functional.
In series [8] the test system is Oryctolagus cuniculus. Put plainly: Effect on heart rate in anesthetized New Zealand white rabbit myocardial ischemia model assessed as beats per minute at 0.04 mg/kg. In kind it is functional.
Series [9] concerns Oryctolagus cuniculus. Nature of the series: Reversal of ischemia-induced ST segment elevation in iv dosed anesthetized New Zealand white rabbit. In kind it is functional.
Series [10] deals with Oryctolagus cuniculus. Nature of the series: Effect on heart rate in anesthetized New Zealand white rabbit myocardial ischemia model assessed as beats per minute at 0.63 mg/kg. In kind it is functional.
The subject of series [11] is Oryctolagus cuniculus. Nature of the series: Reversal of ischemia-induced ST segment elevation in anesthetized New Zealand white rabbit at 2.5 mg/kg, iv. Set-up: dose 2.5 mg/kg. In kind it is functional, organism-based.
Series [12] concerns Oryctolagus cuniculus. Put plainly: Ratio of ED50 for reversal of ischemia-induced ST segment elevation in po dosed New Zealand white rabbit to ED50 for reversal of ischemia-induced ST segment elevation iv dosed New Zealand white rabbit. In kind it is functional.
Series [13] deals with T1, Sodium channel protein type 5 subunit alpha. Put plainly: Inhibition of sodium Nav1.5 channel assessed as inhibition of late sodium current elicited at -30 mV from holding potential of -90 mV.
The test system of series [14] is Oryctolagus cuniculus. Put plainly: Effect on heart rate in anesthetized New Zealand white rabbit myocardial ischemia model assessed as beats per minute at 0.01 mg/kg. In kind it is functional.
In series [15] the test system is Oryctolagus cuniculus. Put plainly: Reversal of ischemia-induced ST segment elevation in po dosed anesthetized New Zealand white rabbit. In kind it is functional.
For series [16], the target named is T1, Sodium channel protein type 5 subunit alpha. Nature of the series: Inhibition of sodium Nav1.5 channel assessed as inhibition of late sodium current elicited at -30 mV from holding potential of -110 mV.

T1 sequence (Q14524 whole entry): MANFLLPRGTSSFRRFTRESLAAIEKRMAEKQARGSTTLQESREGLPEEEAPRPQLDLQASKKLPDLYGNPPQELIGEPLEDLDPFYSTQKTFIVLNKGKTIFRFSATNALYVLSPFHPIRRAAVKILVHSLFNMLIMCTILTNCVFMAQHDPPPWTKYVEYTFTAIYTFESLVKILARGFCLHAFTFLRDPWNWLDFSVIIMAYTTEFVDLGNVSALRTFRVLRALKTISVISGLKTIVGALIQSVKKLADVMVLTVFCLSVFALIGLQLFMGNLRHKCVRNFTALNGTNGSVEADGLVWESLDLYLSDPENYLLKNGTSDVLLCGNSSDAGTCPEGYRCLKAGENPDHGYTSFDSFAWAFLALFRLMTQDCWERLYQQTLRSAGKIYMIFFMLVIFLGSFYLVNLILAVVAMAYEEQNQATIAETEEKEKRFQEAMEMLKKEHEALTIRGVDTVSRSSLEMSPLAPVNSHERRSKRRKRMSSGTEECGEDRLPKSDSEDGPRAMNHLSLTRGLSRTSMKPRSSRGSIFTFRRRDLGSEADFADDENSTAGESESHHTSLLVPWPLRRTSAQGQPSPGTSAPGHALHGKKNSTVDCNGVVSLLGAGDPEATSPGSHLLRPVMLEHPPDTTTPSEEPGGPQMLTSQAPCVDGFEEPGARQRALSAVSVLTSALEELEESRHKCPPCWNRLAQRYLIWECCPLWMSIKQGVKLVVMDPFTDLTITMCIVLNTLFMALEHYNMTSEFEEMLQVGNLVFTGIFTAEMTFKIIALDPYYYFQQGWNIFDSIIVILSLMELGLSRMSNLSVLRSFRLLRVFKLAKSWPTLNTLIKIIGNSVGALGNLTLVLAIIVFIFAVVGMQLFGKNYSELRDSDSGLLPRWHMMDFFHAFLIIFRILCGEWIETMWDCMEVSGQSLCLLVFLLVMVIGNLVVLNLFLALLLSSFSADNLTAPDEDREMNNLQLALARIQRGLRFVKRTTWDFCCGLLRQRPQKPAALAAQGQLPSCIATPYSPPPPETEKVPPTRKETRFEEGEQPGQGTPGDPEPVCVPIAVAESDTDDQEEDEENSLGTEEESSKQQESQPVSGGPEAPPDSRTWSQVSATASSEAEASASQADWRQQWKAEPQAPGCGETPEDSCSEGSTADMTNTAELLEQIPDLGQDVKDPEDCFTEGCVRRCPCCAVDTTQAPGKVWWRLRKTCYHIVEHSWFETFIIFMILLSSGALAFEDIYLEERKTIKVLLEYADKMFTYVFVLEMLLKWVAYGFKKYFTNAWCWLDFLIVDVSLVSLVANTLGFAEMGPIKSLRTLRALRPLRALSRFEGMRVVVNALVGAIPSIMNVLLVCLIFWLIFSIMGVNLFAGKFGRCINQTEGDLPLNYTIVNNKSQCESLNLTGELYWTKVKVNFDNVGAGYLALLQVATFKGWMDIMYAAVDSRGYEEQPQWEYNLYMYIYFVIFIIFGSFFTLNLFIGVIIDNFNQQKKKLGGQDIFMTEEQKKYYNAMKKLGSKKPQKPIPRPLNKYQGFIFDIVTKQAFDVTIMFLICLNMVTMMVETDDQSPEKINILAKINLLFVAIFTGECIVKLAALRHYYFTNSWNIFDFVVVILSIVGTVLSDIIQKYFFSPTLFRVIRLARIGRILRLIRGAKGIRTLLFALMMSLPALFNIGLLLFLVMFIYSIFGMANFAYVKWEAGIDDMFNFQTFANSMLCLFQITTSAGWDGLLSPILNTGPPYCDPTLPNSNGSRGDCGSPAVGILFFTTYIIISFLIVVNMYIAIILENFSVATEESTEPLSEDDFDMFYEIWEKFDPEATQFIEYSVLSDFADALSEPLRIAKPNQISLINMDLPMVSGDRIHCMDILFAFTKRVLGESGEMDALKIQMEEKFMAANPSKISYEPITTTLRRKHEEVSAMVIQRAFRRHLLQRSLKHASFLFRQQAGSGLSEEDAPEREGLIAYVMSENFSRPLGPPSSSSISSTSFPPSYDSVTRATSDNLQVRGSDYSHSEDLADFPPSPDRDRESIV

With `COc1ccccc1SC[C@H](CN[C@@H]1COc2ccccc2SC1)OC`, in [1], the “inhibition (INH)” value stood at 64%. For the same compound, the inhibition at 10 µM came out at 27% in series [2] and 12% in series [4]. Moreover, the inhibition at 1 µM in series [3] worked out at 45%.

`NC1=N[C@H](O)[C@H]2[C@H]3O[C@]4(O)O[C@@H]([C@@H](O)[C@@]2(N1)[C@@H]4O)[C@]3(O)CO` [TETRODOTOXIN]: the “inhibition (INH)” value in [2] (human, hek293, 10 µM) came to 87%; in [4] (human, hek293, 10 µM) it was 79%. This compound also returned an inhibition in [5] of 64%.

Broadly, the ED50 is the dose that gives a 50% effect, or the effect in half of the subjects. Consider `COc1cc2c(cc1OC)CC(=O)N(CCCN(C)C[C@H]1Cc3cc(OC)c(OC)cc31)CC2` [IVABRADINE], for which the Activity was -112.6 bpm in series [6], -20.7 bpm in series [7], -3.4 bpm in series [8] and -69.4 bpm in series [10]. In addition, the ED50 in series [9] came to 0.59 mg/kg. In series [11], the outcome was Active.

With `COc1ccccc1SC[C@@H](F)CN[C@@H]1COc2ccccc2SC1`, the figures for the inhibition at 10 µM in series [2] and in series [4] were 19% and 11%, respectively. Also, the inhibition at 1 µM in [3] was 32%.

Take `C=C(CN[C@@H]1COc2ccccc2SC1)CSc1ccccc1OC`: the inhibition at 10 µM in [2] is 37%; in series [4] it was 36%. For the same compound, the inhibition at 1 µM in series [3] stood at 26%.

Regarding `COc1ccccc1SC[C@H](C)CN[C@H]1COc2ccccc2SC1`, the results for the inhibition at 10 µM in [2] and in [4] were 44% and 30%, respectively. In addition, the inhibition at 1 µM in [3] was 26%.

As for `COc1ccccc1SC[C@H](C)CN[C@@H]1COc2ccccc2SC1`, the results for the inhibition at 10 µM in series [2] and in series [4] were 34% and 22%, respectively. For the same compound, in series [3], the inhibition at 1 µM amounted to 38%.

Consider `COc1ccccc1SC[C@@H](O)CN[C@@H]1COc2ccccc2SC1`, for which, in series [1], the “inhibition (INH)” value worked out at 14%. For the same compound, the figures for the inhibition at 10 µM in [2] and in [4] were 75% and 69%, respectively. Further, the inhibition at 1 µM in series [3] was found to be 54%.

Regarding `COc1ccccc1SCC(O)CN[C@H]1COc2ccccc2SC1` (mixture of isomers), the inhibition at 10 µM in series [2] was determined as 21%; in [4], 16%. The inhibition at 1 µM in series [3] was found to be 26%.

On to `CCCO[C@@H](CN[C@@H]1COc2ccccc2SC1)CSc1ccccc1OC`, for which the inhibition at 10 µM in series [2] and in [4] was 27% in each case. The inhibition at 1 µM in [3] turned out to be 30%.

Regarding `CCC[C@@H](CN[C@@H]1COc2ccccc2SC1)CSc1ccccc1OC`, the inhibition at 10 µM in series [2] worked out at 23%; in series [4], 17%. In addition, the inhibition at 1 µM in series [3] turned out to be 23%.

For the compound `COc1ccccc1SCC(CN[C@@H]1COc2ccccc2SC1)=C(C)C`, the “inhibition (INH)” value in [1] came out at 16%. In addition, the inhibition at 10 µM came out at 37% in series [2] and 31% in series [4]. Moreover, the inhibition at 1 µM in series [3] is 42%.

Take `COc1ccccc1SC[C@H](CN[C@@H]1COc2ccccc2SC1)C(C)C`: the “inhibition (INH)” value in series [1] came out at 31%. The inhibition at 10 µM in series [2] was 34%; in series [4], 31%. For the same compound, the inhibition at 1 µM in series [3] amounted to 90%.

Usually IC50 stands for the concentration at which inhibition is half-maximal. For the compound `COc1ccccc1SC[C@@H](C)CN[C@@H]1COc2ccccc2SC1`, in series [1], the “inhibition (INH)” value is 65%. In addition, the Activity is on record as -8.6 bpm in [6]; -6.4 bpm in [7]; 0.3 bpm in series [8]; -3.2 bpm in series [14]; -3.2 bpm in series [10]. The figures for the inhibition at 10 µM in series [2] and in series [4] were 70% and 53%, respectively. In [12], the “Ratio ED50” value was determined as 2.6. Besides, the inhibition at 1 µM in [3] amounted to 74%. Besides, the IC50 in [13] came out at 5.77 µM; in [16], 2.56 µM. Moreover, the ED50 in series [15] came out at 0.13 mg/kg; in series [9], 0.05 mg/kg.

Take `COc1ccccc1SCC(O)CN[C@@H]1COc2ccccc2SC1` (mixture of isomers): the inhibition at 10 µM in series [2] stood at 42%; in series [4], 37%. For the same compound, the inhibition at 1 µM in [3] was found to be 50%.

Turning to `COc1ccccc1SC[C@H](CN[C@@H]1COc2ccccc2SC1)OC(C)=O`, the inhibition at 1 µM in series [3] came to 9%.

For the compound `COc1ccccc1SC[C@H](CN[C@@H]1COc2ccccc2SC1)OC(=O)c1ccccc1`, in series [3], the inhibition at 1 µM is 3%.

Regarding `COc1ccccc1SC[C@@H](C)CN[C@H]1COc2ccccc2SC1`, the inhibition at 10 µM in [2] is 41%; in [4], 31%. Also, in [3], the inhibition at 1 µM came out at 25%.

As for `COc1ccccc1OCC(O)CN1CCN(CC(=O)Nc2c(C)cccc2C)CC1` (configuration not stated) [RANOLAZINE], the inhibition at 10 µM came out at 19% in series [2] and 11% in [4]. In [9], the ED50 is above 2.5 mg/kg.

Turning to `CCO[C@@H](CN[C@@H]1COc2ccccc2SC1)CSc1ccccc1OC`, the “inhibition (INH)” value in [1] came out at 33%. The inhibition at 10 µM amounted to 34% in series [2] and 22% in [4]. Further, in series [3], the inhibition at 1 µM turned out to be 46%.

Turning to `COc1ccc(CCN(C)CCCOc2nsc(-c3ccccc3)n2)cc1OC`, in [1], the “inhibition (INH)” value is listed as 39%. Besides, the inhibition at 10 µM in [2] and in series [4] was 60% throughout. Also, in [3], the inhibition at 1 µM is 45%.

As to `CC[C@@H](CN[C@@H]1COc2ccccc2SC1)CSc1ccccc1OC`, the “inhibition (INH)” value in series [1] is on record as 68%. In addition, the inhibition at 10 µM in series [2] came to 54%; in series [4], 46%. Also, in series [3], the inhibition at 1 µM turned out to be 86%.

As to `COc1ccccc1SCCCN[C@@H]1COc2ccccc2SC1`, the inhibition at 1 µM in series [3] came to 3%.

With `COc1ccccc1SC[C@H](O)CN[C@@H]1COc2ccccc2SC1`, the inhibition at 10 µM in series [2] was found to be 30%; in series [4], 26%. Besides, the inhibition at 1 µM in [3] was found to be 7%.
